# Measured values from the supplement of paper PMC10733146.
# How the values were obtained:
# Test in all cases: viability relative to DMSO control (fraction); higher = less drug effect (more viable cells)
# Details in all cases: 48 h
# [1] = system: primary ALL patient cells (S088)
# Outline: (§1)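 Primary mononuclear tumour cells (Ficoll-isolated from blood or bone marrow, or processed lymph node; fresh or cryopreserved) were plated at 4 × 10^4 cells per well in 384-well plates with pre-plated compounds at five concentrations, one well each. Medium was RPMI-1640 with penicillin/streptomycin, L-glutamine and human serum, at 37 °C and 5% CO2 for 48 h. Viability was read as CellTiter-Glo luminescence relative to the median of 16 inner DMSO wells.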
# [2] = system: primary AML patient cells (S019)
# Outline: as §1
# [3] = system: primary AML patient cells (S089)
# Outline: as §1
# [4] = system: primary AML patient cells (S017)
# Outline: as §1
# [5] = system: primary ALL patient cells (S048)
# Outline: as §1
# [6] = system: primary AML patient cells (S021)
# Outline: as §1
# [7] = system: primary AML patient cells (S055)
# Outline: as §1
# [8] = system: primary B-PLL patient cells (S016)
# Outline: as §1
# [9] = system: primary AML patient cells (S002)
# Outline: as §1
# [10] = system: primary AML patient cells (S091)
# Outline: as §1
# [11] = system: primary MCL patient cells (S053)
# Outline: as §1
# [12] = system: primary AML patient cells (S009)
# Outline: as §1
# [13] = system: primary AML patient cells (S079)
# Outline: as §1
# [14] = system: primary AML patient cells (S025)
# Outline: as §1
# [15] = system: primary DLBCL patient cells (S082)
# Outline: as §1
# [16] = system: primary AML patient cells (S060)
# Outline: as §1
# [17] = system: primary FL patient cells (S087)
# Outline: as §1
# [18] = system: primary AML patient cells (S071)
# Outline: as §1
# [19] = system: primary AML patient cells (S072)
# Outline: as §1
# [20] = system: primary FL patient cells (S022)
# Outline: as §1
smiles,measurement,setting,value
CC1(COc2ccc3c(c2)ncn3-c2ccc3cccc(N4CCC(N)CC4)c3n2)COC1 [Crenolanib],viability,[1]; 0.016 µM,0.695
same,viability,[1]; 0.08 µM,0.674
same,viability,[1]; 0.4 µM,0.584
same,viability,[1]; 2 µM,0.439
same,viability,[1]; 10 µM,0.033
same,viability,[2]; 0.016 µM,0.927
same,viability,[2]; 0.08 µM,1.17
same,viability,[2]; 0.4 µM,0.995
same,viability,[2]; 2 µM,1.19
same,viability,[2]; 10 µM,0.148
same,viability,[3]; 0.016 µM,0.824
same,viability,[3]; 0.08 µM,0.612
same,viability,[3]; 0.4 µM,0.835
same,viability,[3]; 2 µM,0.835
same,viability,[3]; 10 µM,0.0567
same,viability,[4]; 0.016 µM,1.05
same,viability,[4]; 0.08 µM,1.09
same,viability,[4]; 0.4 µM,1.12
same,viability,[4]; 2 µM,1.16
same,viability,[4]; 10 µM,0.109
same,viability,[5]; 0.016 µM,0.85
same,viability,[5]; 0.08 µM,0.851
same,viability,[5]; 0.4 µM,0.797
same,viability,[5]; 2 µM,0.554
same,viability,[5]; 10 µM,0.418
same,viability,[6]; 0.016 µM,1.04
same,viability,[6]; 0.08 µM,1.15
same,viability,[6]; 0.4 µM,1.17
same,viability,[6]; 2 µM,0.984
same,viability,[6]; 10 µM,0.453
same,viability,[7]; 0.016 µM,1.12
same,viability,[7]; 0.08 µM,1.08
same,viability,[7]; 0.4 µM,1.11
same,viability,[7]; 2 µM,1.12
same,viability,[7]; 10 µM,0.381
same,viability,[8]; 0.016 µM,1.04
same,viability,[8]; 0.08 µM,1.24
same,viability,[8]; 0.4 µM,0.794
same,viability,[8]; 2 µM,0.553
same,viability,[8]; 10 µM,0.0382
same,viability,[9]; 0.016 µM,0.956
same,viability,[9]; 0.08 µM,1.13
same,viability,[9]; 0.4 µM,1.3
same,viability,[9]; 2 µM,1.5
same,viability,[9]; 10 µM,0.426
same,viability,[10]; 0.016 µM,1.03
same,viability,[10]; 0.08 µM,1.32
same,viability,[10]; 0.4 µM,1.37
same,viability,[10]; 2 µM,1.58
same,viability,[10]; 10 µM,0.101
same,viability,[11]; 0.016 µM,1.03
same,viability,[11]; 0.08 µM,1.07
same,viability,[11]; 0.4 µM,1.12
same,viability,[11]; 2 µM,0.963
same,viability,[11]; 10 µM,0.348
same,viability,[12]; 0.016 µM,0.926
same,viability,[12]; 0.08 µM,0.979
same,viability,[12]; 0.4 µM,0.921
same,viability,[12]; 2 µM,2.2
same,viability,[12]; 10 µM,0.301
same,viability,[13]; 0.016 µM,1.02
same,viability,[13]; 0.08 µM,1.17
same,viability,[13]; 0.4 µM,0.996
same,viability,[13]; 2 µM,0.889
same,viability,[13]; 10 µM,0.0548
same,viability,[14]; 0.016 µM,0.983
same,viability,[14]; 0.08 µM,1.12
same,viability,[14]; 0.4 µM,1.29
same,viability,[14]; 2 µM,1.29
same,viability,[14]; 10 µM,0.173
same,viability,[15]; 0.016 µM,1
same,viability,[15]; 0.08 µM,1.12
same,viability,[15]; 0.4 µM,1.07
same,viability,[15]; 2 µM,0.624
same,viability,[15]; 10 µM,0.0262
same,viability,[16]; 0.016 µM,1.12
same,viability,[16]; 0.08 µM,1.1
same,viability,[16]; 0.4 µM,1.05
same,viability,[16]; 2 µM,1.02
same,viability,[16]; 10 µM,0.0351
same,viability,[17]; 0.016 µM,1.02
same,viability,[17]; 0.08 µM,0.971
same,viability,[17]; 0.4 µM,1
same,viability,[17]; 2 µM,0.847
same,viability,[17]; 10 µM,0.357
same,viability,[18]; 0.016 µM,0.672
same,viability,[18]; 0.08 µM,0.712
same,viability,[18]; 0.4 µM,0.778
same,viability,[18]; 2 µM,1.38
same,viability,[18]; 10 µM,0.103
same,viability,[19]; 0.016 µM,0.891
same,viability,[19]; 0.08 µM,0.982
same,viability,[19]; 0.4 µM,0.793
same,viability,[19]; 2 µM,0.742
same,viability,[19]; 10 µM,0.0532
same,viability,[20]; 0.016 µM,0.991
same,viability,[20]; 0.08 µM,1.07
same,viability,[20]; 0.4 µM,0.966
same,viability,[20]; 2 µM,0.743
same,viability,[20]; 10 µM,0.0846
COc1ccc(C2=N[C@@H](c3ccc(Cl)cc3)[C@@H](c3ccc(Cl)cc3)N2C(=O)N2CCNC(=O)C2)c(OC(C)C)c1 [Nutlin-3a],viability,[1]; 0.032 µM,0.954
same,viability,[1]; 0.16 µM,0.854
same,viability,[1]; 0.8 µM,0.795
same,viability,[1]; 4 µM,0.355
same,viability,[1]; 20 µM,0.133
same,viability,[2]; 0.032 µM,1.13
same,viability,[2]; 0.16 µM,1.03
same,viability,[2]; 0.8 µM,1.08
same,viability,[2]; 4 µM,0.546
same,viability,[2]; 20 µM,0.259
same,viability,[3]; 0.032 µM,1.07
same,viability,[3]; 0.16 µM,1.01
same,viability,[3]; 0.8 µM,1.01
same,viability,[3]; 4 µM,0.802
same,viability,[3]; 20 µM,0.511
same,viability,[4]; 0.032 µM,1.05
same,viability,[4]; 0.16 µM,0.979
same,viability,[4]; 0.8 µM,1.03
same,viability,[4]; 4 µM,1.03
same,viability,[4]; 20 µM,1.08
same,viability,[5]; 0.032 µM,0.97
same,viability,[5]; 0.16 µM,0.995
same,viability,[5]; 0.8 µM,0.881
same,viability,[5]; 4 µM,0.506
same,viability,[5]; 20 µM,0.056
same,viability,[6]; 0.032 µM,0.972
same,viability,[6]; 0.16 µM,0.978
same,viability,[6]; 0.8 µM,0.73
same,viability,[6]; 4 µM,0.328
same,viability,[6]; 20 µM,0.2
same,viability,[7]; 0.032 µM,1.03
same,viability,[7]; 0.16 µM,1.02
same,viability,[7]; 0.8 µM,0.977
same,viability,[7]; 4 µM,0.911
same,viability,[7]; 20 µM,0.306
same,viability,[8]; 0.032 µM,1.06
same,viability,[8]; 0.16 µM,0.946
same,viability,[8]; 0.8 µM,1.02
same,viability,[8]; 4 µM,0.733
same,viability,[8]; 20 µM,0.101
same,viability,[9]; 0.032 µM,0.891
same,viability,[9]; 0.16 µM,0.91
same,viability,[9]; 0.8 µM,0.726
same,viability,[9]; 4 µM,0.401
same,viability,[9]; 20 µM,0.268
same,viability,[10]; 0.032 µM,0.988
same,viability,[10]; 0.16 µM,0.84
same,viability,[10]; 0.8 µM,0.62
same,viability,[10]; 4 µM,0.404
same,viability,[10]; 20 µM,0.365
same,viability,[11]; 0.032 µM,1.01
same,viability,[11]; 0.16 µM,0.896
same,viability,[11]; 0.8 µM,0.738
same,viability,[11]; 4 µM,0.433
same,viability,[11]; 20 µM,0.282
same,viability,[12]; 0.032 µM,0.875
same,viability,[12]; 0.16 µM,0.89
same,viability,[12]; 0.8 µM,0.744
same,viability,[12]; 4 µM,0.621
same,viability,[12]; 20 µM,0.493
same,viability,[13]; 0.032 µM,1.02
same,viability,[13]; 0.16 µM,1.01
same,viability,[13]; 0.8 µM,0.972
same,viability,[13]; 4 µM,0.868
same,viability,[13]; 20 µM,0.61
same,viability,[14]; 0.032 µM,0.961
same,viability,[14]; 0.16 µM,0.947
same,viability,[14]; 0.8 µM,0.788
same,viability,[14]; 4 µM,0.346
same,viability,[14]; 20 µM,0.0996
same,viability,[15]; 0.032 µM,1.07
same,viability,[15]; 0.16 µM,1.02
same,viability,[15]; 0.8 µM,1.1
same,viability,[15]; 4 µM,1.04
same,viability,[15]; 20 µM,1.12
same,viability,[16]; 0.032 µM,1.02
same,viability,[16]; 0.16 µM,0.99
same,viability,[16]; 0.8 µM,1.03
same,viability,[16]; 4 µM,1.01
same,viability,[16]; 20 µM,0.974
same,viability,[17]; 0.032 µM,0.984
same,viability,[17]; 0.16 µM,0.964
same,viability,[17]; 0.8 µM,0.931
same,viability,[17]; 4 µM,0.816
same,viability,[17]; 20 µM,0.675
same,viability,[18]; 0.032 µM,0.982
same,viability,[18]; 0.16 µM,0.78
same,viability,[18]; 0.8 µM,0.342
same,viability,[18]; 4 µM,0.117
same,viability,[18]; 20 µM,0.0641
same,viability,[19]; 0.032 µM,1.04
same,viability,[19]; 0.16 µM,0.956
same,viability,[19]; 0.8 µM,0.875
same,viability,[19]; 4 µM,0.78
same,viability,[19]; 20 µM,0.693
same,viability,[20]; 0.032 µM,0.954
same,viability,[20]; 0.16 µM,0.936
same,viability,[20]; 0.8 µM,1.02
same,viability,[20]; 4 µM,0.881
same,viability,[20]; 20 µM,0.621
